Experimental findings from patent US20080045534A1, “Derivatives of 1,3-diamino benzene as potassium channel modulators” (Valeant Pharmaceuticals North America, priority 2006, published 2008) are described below.

The EC50 is the concentration at which the effect is half-maximal. A lower EC50 goes with an effect from little substance.

The target of the assay is T1, KCNQ 2/3 (Rattus norvegicus, UniProt O88943+O88944).
T1 construct: endogenous in cells; host or cells: PC-12 cells differentiated with NGF-7s
The experiment in a line: rubidium (Rb+) efflux assay in NGF-differentiated PC-12 cells. Type of assay: cell-based. Conditions: concentration for 50% of maximal Rb+ efflux, depolarization buffer (15 mM KCl), 10 min at room temperature. The method, then:
Compounds of this invention formula were evaluated as KCNQ 2/3 modulators by measuring rhubidium release in the following assay.
Methods: PC-12 cells were grown at 37° C. and 5% CO2 in DMEM/F12 Medium supplemented with 10% horse serum, 5% fetal bovine serum, 2 mM glutamine, 100 U/ml penicillin, 100 U/ml streptomycin. They were plated in poly-D-lysine-coated 96-well cell culture microplates at a density of 40,000 cells/well and differentiated with 100 ng/ml NGF-7s for 2-5 days. For the assay, the medium was aspirated and the cells were washed once with 0.2 ml in wash buffer (25 mM Hepes, pH 7.4, 150 mM NaCl, 1 mM MgCl2, 0.8 mM NaH2PO4, 2 mM CaCl2). The cells were then loaded with 0.2 ml Rb^+ loading buffer (wash buffer plus 5.4 mM […], 5 mM glucose) and incubated at 37° C. for 2 h. Attached cells were quickly washed three times with buffer (same as Rb^+ loading buffer, but containing 5.4 mM KCl instead of RbCl) to remove extracellular Rb^+. Immediately following the wash, 0.2 ml of depolarization buffer (wash buffer plus 15 mM KCl) with or without compounds was added to the cells to activate efflux of potassium ion channels. After incubation for 10 min at room temperature, the supernatant was carefully removed and collected. Cells were lysed by the addition of 0.2 ml of lysis buffer (depolarization buffer plus 0.1% Triton X-100) and the cell lysates were also collected. If collected samples were not immediately analyzed for Rb^+ contents by atomic absorption spectroscopy (see below), they were stored at 4° C. without any negative effects on subsequent Rb^+ analysis.
The concentration of Rb^+ in the supernatants (Rb^+Sup) and cell lysates (Rb^+Lys) was quantified using an ICR8000 flame atomic absorption spectrometer (Aurora Biomed Inc., Vancouver, B.C.) under conditions defined by the manufacturer. One 0.05 ml samples were processed automatically from microtiter plates by dilution with an equal volume of Rb^+ sample analysis buffer and injection into an air-acetylene flame. The amount of Rb^+ in the sample was measured by absorption at 780 nm using a hollow cathode lamp as light source and a PMT detector. A calibration curve covering the range 0-5 mg/L Rb^+ in sample analysis buffer was generated with each set of plates. The percent Rb^+ efflux (F) was defined by
F=[Rb^+Sup/(Rb^+Sup+Rb^+Lys)]×100%.
The effect (E) of a compound was defined by:
where the Fc is the efflux in the presence of compound in depolarization buffer, Fb is the efflux in basal buffer, and Fs is the efflux in depolarization buffer, and. The effect (E) and compound concentration relationship was plotted to calculate an EC50 value, a compound's concentration for 50% of maximal Rb^+ efflux. Legend: A: EC50<50 nM; B: EC50=50 nM-200 nM; C: EC50=200 nM-1.0 μM; D: EC50=1.0 μM-10 μM; E: EC50>10 μM
Consider `Cc1ccc(NCc2ccc(F)cc2)cc1NC(=O)CC(C)(C)C`, for which the 50% effective concentration (EC50) was 200 to 1000 nM.
In turn, `Cc1c(NCc2ccc(F)cc2)cccc1NC(=O)CC(C)(C)C` returned an EC50 of 50 to 200 nM.
`Cc1ccc(NCc2ccc(F)cc2)c(Cl)c1NC(=O)CC(C)(C)C`: the EC50 was 50 to 200 nM.
In the case of `COc1ccc(N2CCOCC2)c(C)c1NC(=O)CC(C)(C)C`, the EC50 was 1000 to 10000 nM.
Then `Cc1ccc(NC(=O)CC(C)(C)C)cc1N1CCOCC1`, with 1000 to 10000 nM.
As to `CC(C)(C)CC(=O)Nc1cc(N2CCOCC2)c(F)cc1F`, the half-maximal effective concentration (EC50) fell in the range of 1000 to 10000 nM.
For `Cc1ccc(NCc2ccc(C(F)(F)F)cc2)c(C)c1NC(=O)CCC1CCCC1`, the EC50 was under 50 nM.
On to `CC(C)(C)CC(=O)Nc1ccc(F)c(N2CCOCC2)c1`, for which the EC50 is over 10000 nM.
Take `Cc1ccc(N2CCOCC2)cc1NC(=O)CC(C)(C)C`: the EC50 was over 10000 nM.
`CCc1ccc(NCc2ccc(F)cc2)c(CC)c1NC(=O)CCC1CCCC1` had an EC50 of under 50 nM.
As to `CCc1ccc(NCc2ccc(F)cc2)c(C)c1NC(=O)CC(C)(C)C`, the EC50 lay in the range of 50 to 200 nM.
On to `Cc1cc(Cl)c(N2CCOCC2)cc1NC(=O)CC(C)(C)C`, for which the EC50 fell in the range of 1000 to 10000 nM.
In the case of `Cc1ccc(NCc2ccc(F)cc2)c(C)c1NC(=O)CC(C)(C)C` it was 50 to 200 nM; in that of `Cc1ccc(N2CCc3ccccc3C2)cc1NC(=O)CC(C)(C)C`, 200 to 1000 nM; in that of `COc1ccc(NCc2ccc(F)cc2)c(C)c1NC(=O)CCC1CCCC1`, 50 to 200 nM.
For `Cc1ccc(NCc2ccc(F)cc2)c(C)c1NC(=O)CCC1CCCC1`, the EC50 was under 50 nM.
Regarding `CCc1c(NCc2ccc(F)cc2)ccc(C)c1NC(=O)CC(C)(C)C`, the EC50 lay in the range of 50 to 200 nM.
`Cc1c(NC(=O)CC(C)(C)C)cccc1N1CCOCC1` registered an EC50 of over 10000 nM.
`Cc1c(N2CCOCC2)ccc(F)c1NC(=O)CC(C)(C)C` displayed a 50% effective concentration (EC50) of 1000 to 10000 nM.
Then `Cc1ccc(N2CCOCC2)c(C)c1NC(=O)CC(C)(C)C`, with 1000 to 10000 nM.
`Cc1ccc(NCc2ccc(C(F)(F)F)cc2)c(C)c1NC(=O)CC(C)(C)C` registered an EC50 of 200 to 1000 nM.
